In US20240327359A1, “3-ISOXAZOLIDINONE COMPOUND, PREPARATION METHOD, HERBICIDAL COMPOSITION AND APPLICATION THEREOF” (QINGDAO KINGAGROOT CHEMICAL COMPOUND CO., LTD., priority 2021, published 2024):

Experiments:
Type in all cases: in vivo
[1] = test system: weeds; assay: Activity test of the compositions, soil sealing treatment
Method in brief: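 Pre-emergence soil spray at 450 kg/ha, 0.3 MPa, applied 72 h after sowing pre-germinated seeds, 20 seeds per pot, 4 pots, 4 repeats; actives in acetone diluted with 0.10% Tween-80. Greenhouse, 20 to 30° C; surviving weed fresh weight measured 21 days after treatment.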

[2] = test system: peanut; assay: Pre-emergence stage, crop damage; conditions: 48 g a.i./mu, 2 weeks
Excerpt: (§1) The activity level criteria for plant damage (i.e., growth control rate) are as follows:
(§2) The above growth control rates are fresh weight control rates.
(§3) Monocotyledonous and dicotyledonous weed seeds (Descurainia sophia, Capsella bursa-pastoris, Abutilon theophrasti, Galium aparine, Stellaria media, Lithospermum arvense, Rorippa indica, Alopecurus aequalis, Alopecurus japonicus, Eleusine indica, Beckmannia syzigachne, Sclerochloa dura, Phleum paniculatum, Veronica didyma, Bromus japonicus, Aegilops tauschii, Phalaris arundinacea, Amaranthus retroflexus, Chenopodiaceae, Commelina communis, Sonchus arvensis, Convolvulus arvensis, Cirsium setosum, Solanumnigrum, Acalypha australis, Digitaria sanguinalis, Echinochloa crusgalli, Setaria viridis, Setaria glauca, Leptochloa chinensis, Monochoria vaginalis, Sagittaria trifolia, Scirpus juncoides, Cyperus rotundus, Cyperus iria, Cyperus difformis, Fimbristylis, Portulaca oleracea, Xanthium sibiricum, Pharbitis nil, Conyza Canadensis, etc.) and major crop seeds (wheat, corn, rice, soybean, cotton, oilseed rape, millet, sorghum, potato, sesame, ricinus, etc.) were placed in plastic pots filled with soil, then covered with 0.5-2 cm of soil, allowed to grow in a good greenhouse environment. The test plants were treated on the day of sowing. The tested compounds of the present invention were respectively dissolved in acetone, then added with Tween 80, diluted with a certain amount of water to obtain a solution of a certain concentration, and sprayed by a spray tower onto the plants. After the application, the plants were cultured for 2 weeks in the greenhouse, and then the experimental results of the weeding were recorded. The doses of the used compounds were 3, 6, 12, 24, 48 g ai./mu (1 mu=1/15 ha), and the averages were obtained from three replicates.

[3] = test system: rice; assay: Pre-emergence stage, crop damage; conditions: 2 weeks
Excerpt: as §1, §2, §3

[4] = test system: cotton; assay: Pre-emergence stage, crop damage; conditions: 2 weeks
Excerpt: as §1, §2, §3

[5] = test system: wheat; assay: Pre-emergence stage, crop damage; conditions: 2 weeks
Excerpt: as §1, §2, §3

[6] = test system: corn; assay: Pre-emergence stage, crop damage; conditions: 24 g a.i./mu, 2 weeks
Excerpt: as §1, §2, §3

[7] = test system: soy bean; assay: Pre-emergence stage, crop damage; conditions: 2 weeks
Excerpt: as §1, §2, §3

[8] = test system: Abutilon theophrasti; assay: Weeding effect in post-emergence stage; conditions: 720 g a.i./ha, 3 weeks after application
Excerpt: as §1, §2
(§4) Monocotyledonous and dicotyledonous weed seeds (Descurainia sophia, Capsella bursa-pastoris, Abutilon theophrasti, Galium aparine, Stellaria media, Lithospermum arvense, Rorippa indica, Alopecurus aequalis, Alopecurus japonicus, Eleusine indica, Beckmannia syzigachne, Sclerochloa dura, Phleum paniculatum, Veronica didyma, Bromus japonicus, Aegilops tauschii, Phalaris arundinacea, Amaranthus retroflexus, Chenopodiaceae, Commelina communis, Sonchus arvensis, Convolvulus arvensis, Cirsium setosum, Solanumnigrum, Acalypha australis, Digitaria sanguinalis, Echinochloa crusgalli, Setaria viridis, Setaria glauca, Leptochloa chinensis, Monochoria vaginalis, Sagittaria trifolia, Scirpus juncoides, Cyperus rotundus, Cyperus iria, Cyperus difformis, Fimbristylis, Portulaca oleracea, Xanthium sibiricum, Pharbitis nil, Conyza Canadensis, etc.) and major crop seeds (wheat, corn, rice, soybean, cotton, oilseed rape, millet, sorghum, potato, sesame, ricinus, etc.) were placed in plastic pots filled with soil, then covered with 0.5-2 cm of soil, allowed to grow in a good greenhouse environment. Two weeks after sowing, the test plants were treated in the 2-3 leaf stage. The tested compounds of the present invention were respectively dissolved in acetone, then added with Tween 80 and 1.5 liter/ha of emulsifiable concentrate of methyl oleate as synergist, diluted with a certain amount of water to obtain a solution of a certain concentration, and sprayed by a spray tower onto the plants. After the application, the plants were cultured for 3 weeks in the greenhouse, and then the experimental results of the weeding were recorded. The doses of the used compounds were 45, 90, 180, 360, 720 g a.i./ha, and the averages were obtained from three replicates.

[9] = test system: Leptochloa chinensis; assay: Weeding effect in post-emergence stage; conditions: 720 g a.i./ha, 3 weeks after application
Excerpt: as §1, §2, §4

[10] = test system: Digitaria sanguinalis; assay: Weeding effect in post-emergence stage; conditions: 720 g a.i./ha, 3 weeks after application
Excerpt: as §1, §2, §4

[11] = test system: Alopecurus japonicus; assay: Weeding effect in post-emergence stage; conditions: 720 g a.i./ha, 3 weeks after application
Excerpt: as §1, §2, §4

Q: How did the “Control effect (%) of A applied alone (A)” value (“Control effect (%)” below) ([1]; Alopecurus japonicus, soil (S), A 8 g a.i./mu) turn out when CC1(C)CON(Cc2ccc(Cl)cc2Br)C1=O [Compound 1] was run?
A: 39.4%

Q: What about the “Control effect (%)” value ([1]; Amaranthus retroflexus, soil (S), A 8 g a.i./mu) of the same molecule?
A: 37.3%

Q: And the “Control effect (%)” value ([1]; Commelina communis, soil (S), A 8 g a.i./mu)?
A: 44.1%

Q: What about the “Control effect (%)” value ([1]; Cyperus difformis, soil (S), A 8 g a.i./mu) of the same molecule?
A: 34.5%

Q: And the “Control effect (%)” value ([1]; Digitaria sanguinalis, soil (S), A 8 g a.i./mu)?
A: 40.3%

Q: What about the “Control effect (%)” value ([1]; Echinochloa crusgalli, soil (S), A 8 g a.i./mu) of the same molecule?
A: 50.7%

Q: What about the “Control effect (%)” value ([1]; Echinochloa crusgalli, soil treatment (S), A at 8 g a.i./mu, fresh weight inhibition 21 days after treatment) of the same molecule?
A: 50.7%

Q: What about the “Control effect (%)” value ([1]; Galium aparine, soil (S), A 8 g a.i./mu) of the same molecule?
A: 37.2%

Q: What about the “Control effect (%)” value ([1]; Lolium multiflorum, soil (S), A 8 g a.i./mu) of the same molecule?
A: 53.2%

Q: What about the “Control effect (%)” value ([1]; Potamogeton distinctus, soil (S), A 8 g a.i./mu) of the same molecule?
A: 35.9%

Q: What about the “Control effect (%)” value ([1]; Veronica didyma, soil (S), A 8 g a.i./mu) of the same molecule?
A: 48.9%

Q: And the “plant damage level (growth control rate) on crop, pre-emergence stage” value (“plant damage level (growth control rate)” below) [2]?
A: 0

Q: And the “plant damage level (growth control rate)” value ([3]; 6 g a.i./mu)?
A: 0

Q: What about the “plant damage level (growth control rate)” value ([3]; 12 g a.i./mu) of the same molecule?
A: 0

Q: And the “plant damage level (growth control rate)” value ([3]; 24 g a.i./mu)?
A: 1 (Level 1: growth control rate is greater than 0% and less than 15%)

Q: And the “plant damage level (growth control rate)” value ([4]; 12 g a.i./mu)?
A: 0

Q: And the “plant damage level (growth control rate)” value ([4]; 24 g a.i./mu)?
A: 0

Q: And the “plant damage level (growth control rate)” value ([5]; 6 g a.i./mu)?
A: 0

Q: And the “plant damage level (growth control rate)” value ([5]; 12 g a.i./mu)?
A: 0

Q: And the “plant damage level (growth control rate)” value ([5]; 24 g a.i./mu)?
A: 0

Q: What about the “plant damage level (growth control rate)” value [6] of the same molecule?
A: 0

Q: What about the “plant damage level (growth control rate)” value ([7]; 24 g a.i./mu) of the same molecule?
A: 0

Q: What about the “plant damage level (growth control rate)” value ([7]; 48 g a.i./mu) of the same molecule?
A: 0

Q: And the “weeding effect in post-emergence stage, activity level (growth control rate)” value (“weeding effect in post-emergence stage” below) [8]?
A: 5 (Level 5: growth control rate is greater than or equal to 85%)

Q: And the “weeding effect in post-emergence stage” value [9]?
A: 5 (Level 5: growth control rate is greater than or equal to 85%)

Q: And the “weeding effect in post-emergence stage” value [10]?
A: 5 (Level 5: growth control rate is greater than or equal to 85%)

Q: And the “weeding effect in post-emergence stage” value [11]?
A: 4 (Level 4: growth control rate is greater than or equal to 60% and less than 85%)
